test system: H460 (NRF2 pathway mutant cell line with high AKR1C3 expression); test: In vitro cell proliferation assay (CellTiter-Glo), H460; type: cell-based; conditions: Homo sapiens, NCI-H460, 72 h, read-out: H460 Qualified absolute AC50
Source text: Cellular Proliferation Assay to Assess Compounds Activity in H460 (NRF2 Pathway Mutant Cell Line with High AKR1C3 Expression) and Hara (NRF2 Pathway Wild Type Cell Line with Low AKR1C3 Expression).
The cell lines A549 and H460 are NRF2 pathway mutant and specifically contain genetic alterations in KEAP1 (A549: G333C, H460: D236H) (Singh A. et al., 2006 PLoS Medicine 3(10) e420). In these cell lines the NRF2 pathway is constitutively active and these cells express high levels of NRF2 protein and NRF2 pathway target gene AKR1C3. […] They have low AKR1C3 expression.
In Vitro Cell Proliferation Assay
Day 1, for H460 800 cells/well or 40 μL of 2×10^4 cells/mL and for Hara 2000 cells/well or 40 μL of 5×10^4 cells/mL medium (RPMI-1640 supplemented with 10% fetal bovine serum and 1% penicillin/streptomycin) were seeded into 384-well tissue culture plates. Day 2, compounds were serially diluted 1:5 to generate 8 point dose response curves and added to cells for a final top concentration of 10 μM. DMSO (1%) control and MG132 (30 μM) controls are added in columns 23 and 24 respectively on each plate for positive and negative control. After incubation for 3 days at 37° C./5% CO2, 30 μl of CellTiter-Glo reagent (Promega) was added and the plates were incubated for 10 min on plate shaker. The amount of luminescence was determined using a Perkin Elmer Envision plate reader. CellTiter-Glo luminescence values of cells treated with DMSO and MG132 controls were used to normalize the data and calculate percentage activity and AC50s of compounds using the Helios Software suite.

Row | SMILES | AC50 [nM]
1 | O=C1CC2(CCN(C(=O)NCc3ccc(OP(=O)(O)O)cc3)CC2)Nc2ccc(F)cc21 [Example 4, 4-((6′-fluoro-4′-oxo-3′,4′-dihydro-1′H-spiro[piperidine-4,2′-quinoline]-1-carboxamido)methyl)phenyl dihydrogen phosphate] | 6

same assay, conditions: Homo sapiens, NCI-H460, 72 h; H460 cells, 3 days, CellTiter-Glo, top concentration 10 μM; read-out: H460 Qualified absolute AC50

Row | SMILES | AC50 [nM]
2 | CC(O)CNC(=O)c1cc(CNC(=O)N2CCC3(CC2)CC(=O)c2cc(F)ccc2N3C)ccc1F (racemic) [Example 88, 6′-fluoro-N-(4-fluoro-3-((2-hydroxypropyl)carbamoyl)benzyl)-1′-methyl-4′-oxo-3′,4′-dihydro-1′H-spiro[piperidine-4,2′-quinoline]-1-carboxamide] | 421
3 | Cc1occc1CNC(=O)N1CCC2(CC1)C[C@@H](O)c1cc(F)ccc1N2 (single isomer, unassigned) [Example 169] | 8
4 | Nc1ccc(CNC(=O)N2CCC3(CC2)C[C@@H](O)c2cc(F)ccc2N3)cc1F (single isomer, unassigned) [Example 170a] | 11
5 | Nc1ccc(CNC(=O)N2CCC3(CC2)C[C@H](O)c2cc(F)ccc2N3)cc1F (single isomer, unassigned) [Example 170b] | ≥ 17300
6 | Cc1ccc(CNC(=O)N2CCC3(CC2)CC(=O)c2cc(F)ccc2N3)o1 [Example 1, 6′-fluoro-N-((5-methylfuran-2-yl)methyl)-4′-oxo-3′,4′-dihydro-1′H-spiro[piperidine-4,2′-quinoline]-1-carboxamide] | 143
7 | Cc1ccc(CNC(=O)N2CCC3(CC2)CC(=O)c2cc(F)ccc2N3C)o1 [Example 7, 6′-fluoro-1′-methyl-N-((5-methylfuran-2-yl)methyl)-4′-oxo-3′,4′-dihydro-1′H-spiro[piperidine-4,2′-quinoline]-1-carboxamide] | 10
8 | O=C1CC2(CCN(C(=O)NCc3ccc(Cl)o3)CC2)Nc2ccc(F)cc21 [Example 22, N-((5-chlorofuran-2-yl)methyl)-6′-fluoro-4′-oxo-3′,4′-dihydro-1′H-spiro[piperidine-4,2′-quinoline]-1-carboxamide] | 37
9 | CN1c2ccc(F)cc2C(=O)CC12CCN(C(=O)NCc1ccc(F)c(NCC3COCCO3)c1)CC2 (stereo not drawn) [Example 31, N-(3-(((1,4-dioxan-2-yl)methyl)amino)-4-fluorobenzyl)-6′-fluoro-1′-methyl-4′-oxo-3′,4′-dihydro-1′H-spiro[piperidine-4,2′-quinoline]-1-carboxamide] | 64
10 | O=C(NCc1ccc(CO)cc1)c1cc(CNC(=O)N2CCC3(CC2)CC(=O)c2cc(F)ccc2N3)ccc1F [Example 32, 6′-fluoro-N-(4-fluoro-3-((4-(hydroxymethyl)benzyl)carbamoyl)benzyl)-4′-oxo-3′,4′-dihydro-1′H-spiro[piperidine-4,2′-quinoline]-1-carboxamide] | 64
11 | Cc1coc(C)c1CNC(=O)N1CCC2(CC1)CC(=O)c1cc(F)ccc1N2 [Example 34, N-((2,4-dimethylfuran-3-yl)methyl)-6′-fluoro-4′-oxo-3′,4′-dihydro-1′H-spiro[piperidine-4,2′-quinoline]-1-carboxamide] | 75
12 | O=C1CC2(CCN(C(=O)NCc3cn[nH]c3)CC2)Nc2ccc(F)cc21 [Example 37, N-((1H-pyrazol-4-yl)methyl)-6′-fluoro-4′-oxo-3′,4′-dihydro-1′H-spiro[piperidine-4,2′-quinoline]-1-carboxamide] | 81
13 | CN1CCN(C(=O)C(C)(C)CNc2cc(CNC(=O)N3CCC4(CC3)CC(=O)c3cc(F)ccc3N4C)ccc2F)CC1 [Example 44, N-(3-((2,2-dimethyl-3-(4-methylpiperazin-1-yl)-3-oxopropyl)amino)-4-fluorobenzyl)-6′-fluoro-1′-methyl-4′-oxo-3′,4′-dihydro-1′H-spiro[piperidine-4,2′-quinoline]-1-carboxamide] | 99
14 | COCCNC(=O)c1cc(CNC(=O)N2CCC3(CC2)CC(=O)c2cc(F)ccc2N3C)ccc1F [Example 58, 6′-fluoro-N-(4-fluoro-3-((2-methoxyethyl)carbamoyl)benzyl)-1′-methyl-4′-oxo-3′,4′-dihydro-1′H-spiro[piperidine-4,2′-quinoline]-1-carboxamide] | 181
15 | Cc1occc1CNC(=O)N1CCC2(CC1)CC(=O)c1cc(F)ccc1N2 [Example 59, 6′-fluoro-N-((2-methylfuran-3-yl)methyl)-4′-oxo-3′,4′-dihydro-1′H-spiro[piperidine-4,2′-quinoline]-1-carboxamide] | 185
16 | O=C(NC1CC(O)C1)c1cc(CNC(=O)N2CCC3(CC2)CC(=O)c2cc(F)ccc2N3)ccc1F (stereo not drawn) [Example 60, 6′-fluoro-N-(4-fluoro-3-((3-hydroxycyclobutyl)carbamoyl)benzyl)-4′-oxo-3′,4′-dihydro-1′H-spiro[piperidine-4,2′-quinoline]-1-carboxamide] | 198
17 | Cc1cc(CNC(=O)N2CCC3(CC2)CC(=O)c2cc(F)ccc2N3)n[nH]1 [Example 72, 6′-fluoro-N-((5-methyl-1H-pyrazol-3-yl)methyl)-4′-oxo-3′,4′-dihydro-1′H-spiro[piperidine-4,2′-quinoline]-1-carboxamide] | 282
18 | Cc1c(CNC(=O)N2CCC3(CC2)CC(=O)c2cc(F)ccc2N3)ccc(F)c1C(N)=O [Example 79, N-(3-carbamoyl-4-fluoro-2-methylbenzyl)-6′-fluoro-4′-oxo-3′,4′-dihydro-1′H-spiro[piperidine-4,2′-quinoline]-1-carboxamide] | 345
19 | CN(C)CCNC(=O)c1cc(CNC(=O)N2CCC3(CC2)CC(=O)c2cc(F)ccc2N3)ccc1F [Example 81, N-(3-((2-(dimethylamino)ethyl)carbamoyl)-4-fluorobenzyl)-6′-fluoro-4′-oxo-3′,4′-dihydro-1′H-spiro[piperidine-4,2′-quinoline]-1-carboxamide] | 352
20 | CN1c2ccc(F)cc2C(=O)CC12CCN(C(=O)NCc1ccc(F)c(NCCN3CCCC3=O)c1)CC2 [Example 90, 6′-fluoro-N-(4-fluoro-3-((2-(2-oxopyrrolidin-1-yl)ethyl)amino)benzyl)-1′-methyl-4′-oxo-3′,4′-dihydro-1′H-spiro[piperidine-4,2′-quinoline]-1-carboxamide] | 443
21 | O=C1CC2(CCN(C(=O)NCc3ccoc3C(F)(F)F)CC2)Nc2ccc(F)cc21 [Example 96, 6′-fluoro-4′-oxo-N-((2-(trifluoromethyl)furan-3-yl)methyl)-3′,4′-dihydro-1′H-spiro[piperidine-4,2′-quinoline]-1-carboxamide] | 489
22 | CN1c2ccc(F)cc2C(=O)CC12CCN(C(=O)NCc1ccc(F)c(C(=O)NCC(C)(C)O)c1)CC2 [Example 97, 6′-fluoro-N-(4-fluoro-3-((2-hydroxy-2-methylpropyl)carbamoyl)benzyl)-1′-methyl-4′-oxo-3′,4′-dihydro-1′H-spiro[piperidine-4,2′-quinoline]-1-carboxamide] | 491
23 | O=C(NCC(=O)C1CC1)c1cc(CNC(=O)N2CCC3(CC2)CC(=O)c2cc(F)ccc2N3)ccc1F [Example 100, N-(3-((2-cyclopropyl-2-oxoethyl)carbamoyl)-4-fluorobenzyl)-6′-fluoro-4′-oxo-3′,4′-dihydro-1′H-spiro[piperidine-4,2′-quinoline]-1-carboxamide] | 518
24 | CCc1noc(C)c1CNC(=O)N1CCC2(CC1)CC(=O)c1cc(F)ccc1N2 [Example 106, N-((3-ethyl-5-methylisoxazol-4-yl)methyl)-6′-fluoro-4′-oxo-3′,4′-dihydro-1′H-spiro[piperidine-4,2′-quinoline]-1-carboxamide] | 598
